Experimental data from patent EP4603105A1, “PHARMACEUTICAL COMPOSITION CONTAINING CYCLIC COMPOUND HAVING SELECTIVE KRAS INHIBITORY EFFECT AGAINST HRAS AND NRAS” (CHUGAI SEIYAKU KABUSHIKI KAISHA, priority 2022, dated 2024).
pIC50: −log10 of the molar value. Where a SMILES comes first, the peptide text is derived from it. Bridges are numbered along the chain shown (N, C = ends). [ ]: non-standard residue; d: D form. The star is where a group is joined. hPhe(3-Cl-4-CF3) = N[C@@H](CCc1ccc(C(F)(F)F)c(Cl)c1)C(=O)O; NPrPhe(4-CF3) = CCCN[C@@H](Cc1ccc(C(F)(F)F)cc1)C(=O)O; NMePhe(4-Me) = CN[C@@H](Cc1ccc(C)cc1)C(=O)O; NMeGly(cPent) = CN[C@H](C(=O)O)C1CCCC1; NMeD = CN[C@@H](CC(=O)O)C(=O)O; NMeL = CN[C@@H](CC(C)C)C(=O)O; N(Me)CH2CH2OMe = COCCN(C)*; Morpholide = C1CN(*)CCO1; NMeA = CN[C@@H](C)C(=O)O; NMeAib = CNC(C)(C)C(=O)O; Nle = CCCC[C@H](N)C(=O)O; Piperidide = C1CCN(*)CC1; Ac5c = NC1(C(=O)O)CCCC1; Aze = O=C(O)[C@@H]1CCN1; Ac4c = NC1(C(=O)O)CCC1; Sar = CNCC(=O)O

Assays:
[1] = molecular target: GDP-bound NRAS wild-type protein (Homo sapiens, UniProt P01111); test: Binding to NRAS by surface plasmon resonance (SPR), KD and KD ratio to KRAS
Method in brief: (§1)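 Single-cycle kinetics on GDP-loaded biotin-Avi RAS captured to ~100–300 RU; 75 s ascending injections, 100 µL/min, 30°C. HBS pH 7.4 + 10 mM MgCl2/10 µM GDP/4% DMSO. 1:1 fit, KD.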

[2] = test system: human lung cancer strain NCI-H441; format: cell-based
Method in brief: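 Proliferation was scored by […] measured after the reagent was added to cultures kept at 37°C in 5% carbon dioxide.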

HRAS wild-type protein = HRAS wild-type protein (Homo sapiens, UniProt P01112); test: Binding to HRAS by surface plasmon resonance (SPR), KD and KD ratio to KRAS
Method in brief: as §1

[3] = ratio of the KD value with respect to GDP-bound NRAS wild-type protein to the KD value with respect to KRAS
[4] = ratio of the KD value with respect to HRAS wild-type protein to the KD value with respect to KRAS
[5] = ratio of KD for GDP-bound NRAS wild-type protein to KD for KRAS
[6] = ratio of KD for HRAS wild-type protein to KD for KRAS
[7] = ratio of KD value for GDP-bound NRAS wild-type protein to KD value for KRAS (SPR)
[8] = ratio of KD value for HRAS wild-type protein to KD value for KRAS (SPR)

Chain of HRAS wild-type protein (P01112 whole entry): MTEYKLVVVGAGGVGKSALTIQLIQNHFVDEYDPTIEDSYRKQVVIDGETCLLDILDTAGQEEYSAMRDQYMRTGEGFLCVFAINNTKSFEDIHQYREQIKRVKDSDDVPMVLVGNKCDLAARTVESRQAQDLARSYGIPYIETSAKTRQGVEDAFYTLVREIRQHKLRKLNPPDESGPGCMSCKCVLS
Chain of GDP-bound NRAS wild-type protein (P01111 whole entry): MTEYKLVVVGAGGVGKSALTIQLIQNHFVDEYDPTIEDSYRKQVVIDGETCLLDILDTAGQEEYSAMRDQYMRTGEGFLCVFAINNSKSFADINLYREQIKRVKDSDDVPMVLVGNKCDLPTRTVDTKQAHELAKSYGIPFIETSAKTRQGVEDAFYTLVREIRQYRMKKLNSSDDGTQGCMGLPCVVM

Row | Compound | NRAS /KRAS [1, 3] | pIC50 [2] | HRAS /KRAS (HRAS wild-type protein; [4]) | further results
1 | CCCN1C(=O)CN(C)C(=O)CN(C)C(=O)[C@H]([C@@H](C)CC)NC(=O)[C@H](CC(C)C)N(C)C(=O)C[C@@H](C(=O)N(C)CCOC)N(C)C(=O)[C@H](C2CCCC2)N(C)C(=O)C2(CCCC2)NC(=O)[C@@H]2CCCN2C(=O)[C@H](CCc2ccc(C(F)(F)F)c(Cl)c2)NC(=O)CN(C)C(=O)[C@@H]1Cc1ccc(C(F)(F)F)cc1 [PP0391] ([NMeL]I[Sar][Sar][NPrPhe(4-CF3)][Sar][hPhe(3-Cl-4-CF3)]P[Ac5c][NMeGly(cPent)][NMeD]-{N(Me)CH2CH2OMe}; lactam N-11) | B (a compound having 3 or more and less than 10 is denoted as B) | 8.96 | B (a compound having 3 or more and less than 10 is denoted as B) | –
2 | CCCC[C@@H]1NC(=O)[C@H](CCc2ccc(C(F)(F)F)c(Cl)c2)NC(=O)CN(C)C(=O)[C@H](Cc2ccc(C)cc2)N(C)C(=O)[C@@H]2CCN2C(=O)[C@H](C)N(C)C(=O)[C@H]([C@@H](C)CC)NC(=O)[C@H](CC(C)C)N(C)C(=O)C[C@@H](C(=O)N2CCCCC2)N(C)C(=O)[C@H](CC(C)C)NC(=O)C(C)(C)N(C)C1=O [PP0047] ([NMeL]I[NMeA][Aze][NMePhe(4-Me)][Sar][hPhe(3-Cl-4-CF3)][Nle][NMeAib]L[NMeD]-Piperidide; lactam N-11) | – | 6.64 | – | NRAS /KRAS [1, 5]: C (A compound having a KD ratio of 0.1 or more and less than 3 is denoted as C); HRAS /KRAS (HRAS wild-type protein; [6]): C (A compound having a KD ratio of 0.1 or more and less than 3 is denoted as C)
3 | CCCN1C(=O)[C@@H]2CCN2C(=O)CN(C)C(=O)[C@H]([C@@H](C)CC)NC(=O)[C@H](CC(C)C)N(C)C(=O)C[C@@H](C(=O)N2CCOCC2)NC(=O)[C@H](C2CCCC2)N(C)C(=O)C2(CCCC2)NC(=O)[C@@H]2CCCN2C(=O)[C@H](CCc2ccc(C(F)(F)F)c(Cl)c2)NC(=O)CN(C)C(=O)[C@@H]1Cc1ccc(C(F)(F)F)cc1 [PP0349] ([NMeL]I[Sar][Aze][NPrPhe(4-CF3)][Sar][hPhe(3-Cl-4-CF3)]P[Ac5c][NMeGly(cPent)]D-Morpholide; lactam N-11) | – | 7.12 | – | NRAS /KRAS [1, 5]: C (A compound having a KD ratio of 0.1 or more and less than 3 is denoted as C); HRAS /KRAS (HRAS wild-type protein; [6]): B (a compound having 3 or more and less than 10 is denoted as B)
4 | CCC[C@H]1C(=O)N[C@@H]([C@@H](C)CC)C(=O)N(C)CC(=O)N(C)[C@H]2C/C=C\CCN(C2=O)[C@@H](Cc2ccc(C)cc2)C(=O)N(C)CC(=O)N[C@@H](CCc2ccc(C(F)(F)F)c(Cl)c2)C(=O)N2C[C@H](OCC)C[C@H]2C(=O)NC2(CC(C)(C)C2)C(=O)N(C)[C@@H](C2CCCC2)C(=O)N(C)[C@H](C(=O)N(C)C)CC(=O)N1C [PP1896] | – | 8.28 | – | NRAS /KRAS [1, 7]: A (a compound having 10 or more and less than 20 is denoted as A); HRAS /KRAS (HRAS wild-type protein; [8]): B (a compound having 3 or more and less than 10 is denoted as B)
5 | CC[C@H](C)[C@@H]1NC(=O)[C@H](CC)N(C)C(=O)C[C@@H](C(=O)N(CC)CC)N(C)C(=O)[C@H](C2CCCC2)N(C)C(=O)C2(CC(C)(C)C2)NC(=O)[C@@H]2C[C@H](C)CN2C(=O)[C@H](CCc2ccc(C(F)(F)F)c(OC)c2)NC(=O)CN(C)C(=O)[C@H](Cc2ccc(C)cc2)N2CC/C=C\C[C@@H](C2=O)N(C)C(=O)CN(C)C1=O [PP1839] | – | 7.61 | – | NRAS /KRAS [1, 7]: A (a compound having 10 or more and less than 20 is denoted as A); HRAS /KRAS (HRAS wild-type protein; [8]): B (a compound having 3 or more and less than 10 is denoted as B)
6 | CCO[C@@H]1C[C@H]2C(=O)NC3(CC(C)(C)C3)C(=O)N(C)[C@@H](C(CC)CC)C(=O)N(C)[C@H](C(=O)N3CCCC3)CC(=O)N(C)[C@@H](C)C(=O)N[C@@H]([C@@H](C)CC)C(=O)N(C)CC(=O)N(C)[C@H]3C/C=C\CCN(C3=O)[C@@H](Cc3ccc(C)cc3)C(=O)N(C)CC(=O)N[C@@H](CCc3ccc(C(F)(F)F)c(Cl)c3)C(=O)N2C1 [PP2152] | AA (a compound having 20 or more is denoted as AA) | 7.53 | A (a compound having 10 or more and less than 20 is denoted as A) | –
7 | CCCN1C(=O)CN(C)C(=O)CNC(=O)[C@H]([C@@H](C)CC)NC(=O)[C@H](CC(C)C)N(C)C(=O)C[C@@H](C(=O)N2CCOCC2)NC(=O)[C@H](C2CCCC2)N(C)C(=O)C2(CCC2)NC(=O)[C@@H]2CCCN2C(=O)[C@H](CCc2ccc(C(F)(F)F)c(Cl)c2)NC(=O)CN(C)C(=O)[C@@H]1Cc1ccc(C(F)(F)F)cc1 [PP0326] ([NMeL]IG[Sar][NPrPhe(4-CF3)][Sar][hPhe(3-Cl-4-CF3)]P[Ac4c][NMeGly(cPent)]D-Morpholide; lactam N-11) | – | 6.76 | – | NRAS /KRAS [1, 5]: B (a compound having 3 or more and less than 10 is denoted as B); HRAS /KRAS (HRAS wild-type protein; [6]): B (a compound having 3 or more and less than 10 is denoted as B)
8 | CCO[C@@H]1C[C@H]2C(=O)NC3(CCC3)C(=O)N(C)[C@@H](C(CC)CC)C(=O)N(C)[C@H](C(=O)N(C)CCOC)CC(=O)N(C)[C@@H](CC)C(=O)N[C@@H]([C@@H](C)CC)C(=O)N(C)CC(=O)N(C)[C@H]3C/C=C\CCN(C3=O)[C@@H](Cc3ccc(C(F)(F)F)cc3)C(=O)N(C)CC(=O)N[C@@H](CCc3cc(F)c(C(F)(F)F)c(F)c3)C(=O)N2C1 [PP1330] | – | 7.10 | – | NRAS /KRAS ([1]; ratio of KD with respect to GDP-bound NRAS wild-type protein to KD with respect to KRAS): AA (a compound having 20 or more is denoted as AA); HRAS /KRAS (HRAS wild-type protein; ratio of KD with respect to HRAS wild-type protein to KD with respect to KRAS): A (a compound having 10 or more and less than 20 is denoted as A)
9 | CCO[C@@H]1C[C@H]2C(=O)NC3(CC(C)(C)C3)C(=O)N(C)[C@@H](C3CCCC3)C(=O)N(C)[C@H](C(=O)N(C)C)CC(=O)N(C)[C@@H](CC)C(=O)N[C@@H]([C@@H](C)CC)C(=O)N(C)CC(=O)N(C)[C@H]3C/C=C\CCN(C3=O)[C@@H](Cc3ccc(C(F)F)cc3)C(=O)N(C)CC(=O)N[C@@H](CCc3cc(F)c(C(F)(F)F)c(F)c3)C(=O)N2C1 [PP2049] | A (a compound having 10 or more and less than 20 is denoted as A) | 8.21 | B (a compound having 3 or more and less than 10 is denoted as B) | –
10 | CC[C@H](C)[C@@H]1NC(=O)[C@@H]2CCC/C=C/c3ccc(cc3)C[C@@H](C(=O)N(C)CC(=O)N[C@@H](CCc3ccc(Cl)c(Cl)c3)C(=O)N3C[C@H](OC(C)C)C[C@H]3C(=O)NC3(CC(C)(C)C3)C(=O)N(C)[C@@H](C3CCCC3)C(=O)N(C)[C@H](C(=O)N(C)CC)CC(=O)N2C)N2CC/C=C\C[C@@H](C2=O)N(C)C(=O)CN(C)C1=O [PP2595] | – | 7.90 | – | NRAS /KRAS [1, 5]: A (a compound having 10 or more and less than 20 is denoted as A); HRAS /KRAS (HRAS wild-type protein; [6]): B (a compound having 3 or more and less than 10 is denoted as B)
11 | CCC(CC)[C@@H]1NC(=O)[C@H](CC(C)C)N(C)C(=O)C[C@@H](C(=O)N2CCOCC2)N(C)C(=O)[C@H](C2CCCC2)N(C)C(=O)C2(CCCC2)NC(=O)[C@@H]2CCCN2C(=O)[C@H](CCc2cc(F)c(C(F)(F)F)c(F)c2)NC(=O)CN(C)C(=O)[C@H](Cc2ccc(C(F)(F)F)cc2)N2CCCC[C@@H](C2=O)N(C)C(=O)CN(C)C1=O [PP0597] | B (a compound having 3 or more and less than 10 is denoted as B) | 7.74 | B (a compound having 3 or more and less than 10 is denoted as B) | –
12 | CC[C@H](C)[C@@H]1NC(=O)[C@H](CC(C)C)N(C)C(=O)C[C@@H](C(=O)N(C)C)N(C)C(=O)[C@H](C2CCCC2)N(C)C(=O)C2(CCC2)NC(=O)[C@@H]2CC(F)(F)CN2C(=O)[C@H](CCc2cc(F)c(C(F)(F)F)c(F)c2)NC(=O)CN(C)C(=O)[C@H](Cc2ccc(C(F)(F)F)cc2)N2CCCCC[C@@H](C2=O)N(C)C(=O)CN(C)C1=O [PP0466] | B (a compound having 3 or more and less than 10 is denoted as B) | 7.65 | B (a compound having 3 or more and less than 10 is denoted as B) | –
13 | CCO[C@@H]1C[C@H]2C(=O)NC3(CC(C)(C)C3)C(=O)N(C)[C@@H](C(CC)CC)C(=O)N(C)[C@H](C(=O)N3CCCC3)CC(=O)N(C)[C@@H](COC)C(=O)N[C@@H]([C@@H](C)CC)C(=O)N(C)CC(=O)N(C)[C@H]3C/C=C\CCN(C3=O)[C@@H](Cc3ccc(C)cc3)C(=O)N(C)CC(=O)N[C@@H](CCc3ccc(C(F)(F)F)c(OC)c3)C(=O)N2C1 [PP2167] | AA (a compound having 20 or more is denoted as AA) | 7.41 | A (a compound having 10 or more and less than 20 is denoted as A) | –
14 | CCC[C@H]1C(=O)N[C@@H]([C@@H](C)CC)C(=O)N(C)CC(=O)N(C)[C@H]2C/C=C\CCN(C2=O)[C@@H](Cc2ccc(C(F)(F)F)cc2)C(=O)N(C)CC(=O)N[C@@H](CCc2cc(F)c(C(F)(F)F)c(F)c2)C(=O)N2C[C@H](OCC)C[C@H]2C(=O)NC2(CCC2)C(=O)N(C)[C@@H](C2CCCC2)C(=O)N(CCC)[C@H](C(=O)N(C)C)CC(=O)N1C [PP1769] | – | 7.89 | – | NRAS /KRAS [1, 7]: A (a compound having 10 or more and less than 20 is denoted as A); HRAS /KRAS (HRAS wild-type protein; [8]): A (a compound having 10 or more and less than 20 is denoted as A)
15 | CC[C@H](C)[C@@H]1NC(=O)[C@H](CC)N(C)C(=O)C[C@@H](C(=O)N(C)C)N(C)C(=O)[C@H](C2CCCC2)N(C)C(=O)C2(CC(C)(C)C2)NC(=O)[C@H](CC)N(C)C(=O)[C@H](CCc2cc(F)c(C(F)(F)F)c(F)c2)NC(=O)CN(C)C(=O)[C@H](Cc2ccc(C(F)(F)F)cc2)N2CC/C=C\C[C@@H](C2=O)N(C)C(=O)CN(C)C1=O [PP1935] | A (a compound having 10 or more and less than 20 is denoted as A) | 7.88 | A (a compound having 10 or more and less than 20 is denoted as A) | –
